In ChEMBL document CHEMBL1130241, “Design, synthesis, and biochemical evaluation of phosphonate and phosphonamidate analogs of glutathionylspermidine as inhibitors of glutathionylspermidine synthetase/amidase from Escherichia coli” (J Med Chem, 1997):

Experiments:
[1] = system: Escherichia coli; assay: Inhibition of Glutathionylspermidine amidase at 1 mM compound concentration
[2] = target: T1, Glutathionylspermidine synthase (Crithidia fasciculata, UniProt P90518); assay: Inhibition of Glutathionylspermidine synthetase. Values from different publications.; parameters: species or system Escherichia coli
T1 sequence (P90518 whole entry): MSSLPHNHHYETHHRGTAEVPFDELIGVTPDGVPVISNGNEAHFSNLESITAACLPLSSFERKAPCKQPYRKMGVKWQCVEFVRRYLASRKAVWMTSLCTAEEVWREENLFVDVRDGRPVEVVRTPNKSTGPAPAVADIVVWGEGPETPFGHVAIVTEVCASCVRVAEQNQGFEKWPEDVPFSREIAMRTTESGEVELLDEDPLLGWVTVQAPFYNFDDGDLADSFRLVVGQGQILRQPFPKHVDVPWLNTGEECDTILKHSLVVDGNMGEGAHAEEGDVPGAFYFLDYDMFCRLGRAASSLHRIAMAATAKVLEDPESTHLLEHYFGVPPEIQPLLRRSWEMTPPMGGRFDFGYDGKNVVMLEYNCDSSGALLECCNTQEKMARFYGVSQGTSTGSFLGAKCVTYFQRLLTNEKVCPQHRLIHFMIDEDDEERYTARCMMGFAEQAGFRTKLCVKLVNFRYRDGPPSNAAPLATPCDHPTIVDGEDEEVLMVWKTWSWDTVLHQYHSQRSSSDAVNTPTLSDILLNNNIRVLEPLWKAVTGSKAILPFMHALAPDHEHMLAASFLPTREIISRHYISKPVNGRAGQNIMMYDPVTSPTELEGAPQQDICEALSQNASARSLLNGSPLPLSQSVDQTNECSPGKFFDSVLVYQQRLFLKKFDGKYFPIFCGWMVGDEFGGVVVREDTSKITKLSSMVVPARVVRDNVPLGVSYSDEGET

[3] = target: Glutathionylspermidine synthetase/amidase (Escherichia coli) (UniProt P0AES0); assay: Percentage of inhibition of Glutathionylspermidine synthetase at 7.3 mM concentration
Chain of Glutathionylspermidine synthetase/amidase (Escherichia coli) (P0AES0 whole entry, looked up): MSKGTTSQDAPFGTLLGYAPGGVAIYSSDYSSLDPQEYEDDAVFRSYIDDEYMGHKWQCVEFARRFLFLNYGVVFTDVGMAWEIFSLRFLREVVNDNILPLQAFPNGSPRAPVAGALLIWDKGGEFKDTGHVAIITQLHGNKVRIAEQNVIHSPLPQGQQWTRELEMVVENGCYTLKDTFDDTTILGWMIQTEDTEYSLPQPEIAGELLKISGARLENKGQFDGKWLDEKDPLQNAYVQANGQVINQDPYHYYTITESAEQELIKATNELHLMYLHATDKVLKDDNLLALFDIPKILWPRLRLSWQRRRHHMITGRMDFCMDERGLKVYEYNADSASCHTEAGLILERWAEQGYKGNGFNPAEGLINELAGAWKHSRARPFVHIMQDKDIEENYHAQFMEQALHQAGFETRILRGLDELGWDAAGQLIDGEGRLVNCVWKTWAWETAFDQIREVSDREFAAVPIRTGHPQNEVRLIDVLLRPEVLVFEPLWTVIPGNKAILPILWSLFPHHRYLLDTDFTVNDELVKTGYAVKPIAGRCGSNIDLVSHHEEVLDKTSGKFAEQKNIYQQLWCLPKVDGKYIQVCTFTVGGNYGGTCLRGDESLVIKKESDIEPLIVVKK

[4] = target: Glutathionylspermidine synthetase/amidase (Escherichia coli) (UniProt P0AES0); assay: Percentage of inhibition of Glutathionylspermidine synthetase at 1 mM concentration
[5] = target: Glutathionylspermidine synthetase/amidase (Escherichia coli) (UniProt P0AES0); assay: Inhibition of Glutathionylspermidine synthetase
[6] = system: Escherichia coli; assay: Inhibition of glutathionylspermidine amidase at 1 mM; not detectable

inhibition [3] [%] | inhibition [4] [%] | Ki [5] [µM] | inhibition [6] | SMILES | inhibition [1] [%] | Ki [2] [µM]
– | – | – | – | COP(=O)(CNC(=O)[C@H](C)NC(=O)CC[C@H](N)C(=O)O)NCCCNCCCCN (some centres not stated) | 3.4 | 24
31.3 | 5.7 | – | – | CCCCNP(=O)(CNC(=O)[C@H](C)NC(=O)CC[C@H](N)C(=O)O)OC (some centres not stated) | 1.8 | –
– | – | 6 | not detectable | C[C@H](NC(=O)CC[C@H](N)C(=O)O)C(=O)NCP(=O)(O)OCCCNCCCCN | – | –
